“And” between values parts separate entries of the source, which are not always exact repeats. Equal values may be shown once. Read-outs that look alike come from different tables or passages of the source.
Legend:
[1] = system: DiMT protein; experiment: DiMT enzyme activity, kinetics and substrate specificity (MTase-Glo methyltransferase assay); format: biochemical, Dirofilaria immitis; settings: for DiMT catalytic activity for methylation of the substrate: SAM as co-substrate; for Vmax / Km: Michaelis-Menten fit; for Km: other substrate fixed
[2] = system: D. immitis microfilariae; experiment: In vitro efficacy against live D. immitis microfilariae (motility, completely immotile %); format: cell-based, Dirofilaria immitis; settings: for Completely Immotile Microfilariae (%): single replicate
[3] = system: DiMT protein; format: biochemical, Dirofilaria immitis
[4] = DiMT 90 ng/μL, SAM 40 μM, substrate 300 μM

OCCS [2-Mercaptoethanol]
Mean RLU [1, 4]: -2592.7 RLU | DiMT catalytic activity for methylation of the substrate [1]: did not depict catalytic activity

NCCc1ccc(O)c(O)c1 [Dopamine]
Kcat (S^-1) ([1]; DiMT 90 ng/μL): 241.28 S^-1 | Mean RLU [1, 4]: 5806.3 RLU | Vmax ([1]; DiMT 90 ng/μL): 1549.0 nmol/µg/min and 1549.0 ± 21.4 nmol/µg/min | Km ([1]; DiMT 90 ng/μL): 106 ± 6.2 µM | DiMT catalytic activity for methylation of the substrate [1]: readily catalyzed the methylation | Mean RLU ([1]; dopamine 50 uM, SAM (30 µM)): 114.3 RLU | RLU (single experiments) ([1]; dopamine 50 uM, SAM (30 µM)): 106.0 RLU and 141.0 RLU and 96.0 RLU | Mean RLU ([1]; dopamine 100 uM, SAM (30 µM)): 391.3 RLU | Mean RLU ([1]; dopamine 200 uM, SAM (30 µM)): 1186.3 RLU | RLU (single experiments) ([1]; dopamine 200 uM, SAM (30 µM)): 958.0 RLU and 965.0 RLU and 1636.0 RLU | Mean RLU ([1]; dopamine 300 uM, SAM (30 µM)): 2161.3 RLU | RLU (single experiments) ([1]; dopamine 300 uM, SAM (30 µM)): 1950.0 RLU and 1857.0 RLU and 2677.0 RLU | Mean RLU ([1]; dopamine 400 uM, SAM (30 µM)): 2830.0 RLU | RLU (single experiments) ([1]; dopamine 400 uM, SAM (30 µM)): 2877.0 RLU and 2606.0 RLU and 3007.0 RLU | Mean RLU ([1]; dopamine 500 uM, SAM (30 µM)): 3483.0 RLU | RLU (single experiments) ([1]; dopamine 500 uM, SAM (30 µM)): 2900.0 RLU and 4023.0 RLU and 3526.0 RLU

NCCc1c[nH]cn1 [Histamine]
Mean RLU [1, 4]: 167.3 RLU | DiMT catalytic activity for methylation of the substrate [1]: did not depict catalytic activity

CO[C@H]1/C=C/O[C@@]2(C)Oc3c(C)c(O)c4c(O)c(cc(O)c4c3C2=O)NC(=O)/C(C)=C\C=C\[C@H](C)[C@H](O)[C@@H](C)[C@@H](O)[C@@H](C)[C@H](OC(C)=O)[C@@H]1C [NSC133100]
Mean completely Immotile (%) ([2]; 15 µM, 0 h): 0% | Completely Immotile Microfilariae (%) ([2]; 15 µM, 0 h): 0% | Mean completely Immotile (%) ([2]; 15 µM, 24 h): 1% | Completely Immotile Microfilariae (%) ([2]; 15 µM, 24 h): 0% and 1% and 2% | Mean completely Immotile (%) ([2]; 15 µM, 48 h): 2.67% | Completely Immotile Microfilariae (%) ([2]; 15 µM, 48 h): 1% and 3% and 4% | Mean completely Immotile (%) ([2]; 15 µM, 72 h): 4.67% | Completely Immotile Microfilariae (%) ([2]; 15 µM, 72 h): 3% and 5% and 6% | Mean completely Immotile (%) ([2]; 15 µM, 96 h): 6.67% | Completely Immotile Microfilariae (%) ([2]; 15 µM, 96 h): 5% and 7% and 8% | Mean completely Immotile (%) ([2]; 15 µM, 120 h): 9.67% | Completely Immotile Microfilariae (%) ([2]; 15 µM, 120 h): 7% and 10% and 12% | Mean completely Immotile (%) ([2]; 25 µM, 0 h): 0% | Completely Immotile Microfilariae (%) ([2]; 25 µM, 0 h): 0% | Mean completely Immotile (%) ([2]; 25 µM, 24 h): 3% | Completely Immotile Microfilariae (%) ([2]; 25 µM, 24 h): 2% and 3% and 4% | Mean completely Immotile (%) ([2]; 25 µM, 48 h): 4.67% | Completely Immotile Microfilariae (%) ([2]; 25 µM, 48 h): 3% and 5% and 6% | Mean completely Immotile (%) ([2]; 25 µM, 72 h): 6.67% | Completely Immotile Microfilariae (%) ([2]; 25 µM, 72 h): 5% and 7% and 8% | Mean completely Immotile (%) ([2]; 25 µM, 96 h): 9.33% | Completely Immotile Microfilariae (%) ([2]; 25 µM, 96 h): 7% and 10% and 11% | Mean completely Immotile (%) ([2]; 25 µM, 120 h): 13.67% | Completely Immotile Microfilariae (%) ([2]; 25 µM, 120 h): 10% and 16% and 15% | Mean completely Immotile (%) ([2]; 50 µM, 0 h): 0% | Completely Immotile Microfilariae (%) ([2]; 50 µM, 0 h): 0% | Mean completely Immotile (%) ([2]; 50 µM, 24 h): 5% | Completely Immotile Microfilariae (%) ([2]; 50 µM, 24 h): 4% and 5% and 6% | Mean completely Immotile (%) ([2]; 50 µM, 48 h): 8% | Completely Immotile Microfilariae (%) ([2]; 50 µM, 48 h): 7% and 8% and 9% | Mean completely Immotile (%) ([2]; 50 µM, 72 h): 10.67% | Completely Immotile Microfilariae (%) ([2]; 50 µM, 72 h): 9% and 11% and 12% | Mean completely Immotile (%) ([2]; 50 µM, 96 h): 12.67% | Completely Immotile Microfilariae (%) ([2]; 50 µM, 96 h): 11% and 13% and 14% | Mean completely Immotile (%) ([2]; 50 µM, 120 h): 17% | Completely Immotile Microfilariae (%) ([2]; 50 µM, 120 h): 14% and 19% and 18% | Mean completely Immotile (%) ([2]; 75 µM, 0 h): 0% | Completely Immotile Microfilariae (%) ([2]; 75 µM, 0 h): 0% | Mean completely Immotile (%) ([2]; 75 µM, 24 h): 6.33% | Completely Immotile Microfilariae (%) ([2]; 75 µM, 24 h): 5% and 6% and 8% | Mean completely Immotile (%) ([2]; 75 µM, 48 h): 10% | Completely Immotile Microfilariae (%) ([2]; 75 µM, 48 h): 9% and 10% and 11% | Mean completely Immotile (%) ([2]; 75 µM, 72 h): 13% | Completely Immotile Microfilariae (%) ([2]; 75 µM, 72 h): 12% and 13% and 14% | Mean completely Immotile (%) ([2]; 75 µM, 96 h): 15.67% | Completely Immotile Microfilariae (%) ([2]; 75 µM, 96 h): 14% and 16% and 17% | Mean completely Immotile (%) ([2]; 75 µM, 120 h): 20.67% | Completely Immotile Microfilariae (%) ([2]; 75 µM, 120 h): 17% and 23% and 22% | effect on microfilariae ([2]; up to 120 h of culture): insignificant effect | Mean Percent Inhibition ([3]; 100 µM): 24.8% and 27.0% and 28.5% | Mean Percent Inhibition, Average ([3]; 100 µM): 26.8% | Mean Percent Inhibition ([3]; 200 µM): 32.0% and 34.7% and 35.8% | Mean Percent Inhibition, Average ([3]; 200 µM): 34.1% | Mean Percent Inhibition ([3]; 300 µM): 33.9% and 41.0% and 42.1% | Mean Percent Inhibition, Average ([3]; 300 µM): 39.0% | Mean Percent Inhibition ([3]; 400 µM): 40.4% and 46.0% | Mean Percent Inhibition, Average ([3]; 400 µM): 44.1% | Mean Percent Inhibition ([3]; 500 µM): 51.5% and 54.8% and 55.7% | Mean Percent Inhibition, Average ([3]; 500 µM): 54.0% | IC50 ([3]; read-out: IC 50 (μM ± SEM)): 496.9 ± 2.7 µM

NCC(O)c1ccc(O)cc1 (stereo not shown) [Octopamine]
fold lower DiMT activity than that of dopamine [1]: 3 fold | Mean RLU [1, 4]: 1996.7 RLU | DiMT catalytic activity for methylation of the substrate [1]: modest activity

NCCOP(=O)(O)O [Phosphoethanolamine]
Mean RLU [1, 4]: -1783.7 RLU | DiMT catalytic activity for methylation of the substrate [1]: did not depict catalytic activity

C[S+](CC[C@H](N)C(=O)[O-])C[C@H]1O[C@@H](n2cnc3c(N)ncnc32)[C@H](O)[C@@H]1O (stereo partly drawn) [SAM, S-adenosyl-L-methionine]
Kcat (S^-1) ([1]; DiMT 90 ng/μL): 42.94 S^-1 | Vmax ([1]; DiMT 90 ng/μL): 275.7 ± 3.9 nmol/µg/min | Km ([1]; DiMT 90 ng/μL): 104 ± 2.7 µM | Mean RLU ([1]; SAM 10 µM, dopamine 360 µM): 756.5 RLU | RLU (single experiments) ([1]; SAM 10 µM, dopamine 360 µM): 914.5 RLU and 723.5 RLU and 631.5 RLU | Mean RLU ([1]; SAM 20 µM, dopamine 360 µM): 2042.5 RLU | RLU (single experiments) ([1]; SAM 20 µM, dopamine 360 µM): 2199.5 RLU and 2145.5 RLU and 1782.5 RLU | Mean RLU ([1]; SAM 30 µM, dopamine 360 µM): 3090.5 RLU | RLU (single experiments) ([1]; SAM 30 µM, dopamine 360 µM): 2251.5 RLU and 2688.5 RLU and 4331.5 RLU | Mean RLU ([1]; SAM 40 µM, dopamine 360 µM): 4397.8 RLU | RLU (single experiments) ([1]; SAM 40 µM, dopamine 360 µM): 4459.5 RLU and 4406.5 RLU and 4327.5 RLU | Mean RLU ([1]; SAM 50 µM, dopamine 360 µM): 5027.5 RLU | RLU (single experiments) ([1]; SAM 50 µM, dopamine 360 µM): 4688.5 RLU and 5346.5 RLU and 5047.5 RLU | Mean RLU ([1]; SAM 60 µM, dopamine 360 µM): 4815.8 RLU | RLU (single experiments) ([1]; SAM 60 µM, dopamine 360 µM): 4881.5 RLU and 5382.5 RLU and 4183.5 RLU

NCCc1ccc(O)cc1 [Tyramine]
fold lower DiMT activity than that of dopamine [1]: 6 fold | Mean RLU [1, 4]: 1001.7 RLU | DiMT catalytic activity for methylation of the substrate [1]: modest activity

From article PMC11392244, “Characterization of a unique catechol-O-methyltransferase as a molecular drug target in parasitic filarial nematodes” (PLOS Neglected Tropical Diseases, 2024)
